Patent US20110117009A1, “DRUG CONJUGATES WITH POLYGLYCEROLS” (FREIE UNIVERSITÄT BERLIN, priority 2008, published 2011)
Marks after values point to notes of the source that are not given here.

Tests used:
[1] = system: human ovarian cancer xenografts (A2780); assay: In vivo efficacy in the ovarian carcinoma A2780 xenograft model; design: species or system female NMRI: nu/nu mice; conditions: doxorubicin 2×8 mg/kg, conjugates 3×24 mg/kg doxorubicin equivalents
Procedure: The mice were held in individually ventilaged cages (IVC) under sterile and standardized environmental conditions (25±2° C. room temperature, 50±10% relative humidity, 12 hour light-dark-rhythm). They received autoclaved food and bedding (ssniff, Soest, Germany) and acidified (pH 4.0) drinking water ad libitum. […] Mice were randomly distributed to the experimental groups (8 mice per group). When the tumors were grown to a palpable size, treatment was initiated.
(§1) Tumor size was measured twice weekly with a caliper-like instrument in two dimensions. Individual tumor volumes (V) were calculated by the formula V=(length×[width]^2)/2 and related to the values on the first day of treatment (relative tumor volume, RTV). Statistical analysis was performed with the U-test (Mann and Whitney) with p<0.05. The body weight of mice was determined every 3 to 4 days.

[2] = Tolerability (mortality, body weight change) in the A2780 xenograft study; assay type: in vivo, female NMRI: nu/nu mice; conditions: i.v. weekly, doxorubicin 2×8 mg/kg, conjugates 3×24 mg/kg doxorubicin equivalents
Procedure: In vivo efficacy studies were carried out with compounds 1-A, 1-B, and 1-C and doxorubicin in the ovarian carcinoma A2780 xenograft model. For the in vivo testing, female NMRI: nu/nu mice (Taconic, Denmark) were used. The mice were held in individually ventilaged cages (IVC) under sterile and standardized environmental conditions (25±2° C. room temperature, 50±10% relative humidity, 12 hour light-dark-rhythm). They received autoclaved food and bedding (ssniff, Soest, Germany) and acidified (pH 4.0) drinking water ad libitum. A2780 tumor fragments were transplanted subcutaneously (s.c.) into the left flank region of anaesthetized (40 mg/kg i.p. Radenarkon, Asta Medica, Frankfurt, Germany) mice on day zero. […]
as §1, with “Statistical analysis was performed with the U-test (Mann and Whitney) with p<0.05.” left out
The standard and maximum tolerated dose of doxorubicin (2×8 mg/kg) was compared to compounds 1-A, 1-B, and 1-C at 3×24 mg/kg (doxorubicin equivalents). […] J. Drug Targeting, 8: 305-318, 2000; Trail et al.: Antigen-specific activity of carcinoma-reactive BR64-doxorubicin conjugates evaluated in vitro and in human tumor xenograft models. […]

[3] = nude mice models, e.g. 2×12 mg/kg; cited from earlier work
[4] = system: AsPC1 LN; assay: Cytotoxicity, luciferase readout after 72 h; assay type: cell-based; conditions: Homo sapiens
Procedure: After 72 h cells were lysed in 100 μL of luciferase assay buffer, and an aliquot of the lysate was assayed for luciferase activity.

COc1cccc2c1C(=O)c1c(O)c3c(c(O)c1C2=O)C[C@@](O)(C(=O)CO)C[C@@H]3O[C@H]1C[C@H](N)[C@H](O)[C@H](C)O1 [Doxorubicin, doxorubicin]
antitumor efficacy (in words) ([1]; A2780 xenografts): moderate antitumor efficacy | optimum T/C RTV ([1]; i.v. weekly, relative tumor volume treated versus control): 15* % | toxic death ([2]; 8 mice per group): 0 | BWC (body weight change) ([2]; day in brackets): −21 (d26) % | toxicity at higher doses [3]: unacceptable toxicity and mortality | IC50 [4]: 360 nM
